One data set relates to Cryptosporidium parvum. Nature of the data set: qRT-PCR assay of the growth of C. parvum in vitro in HCT-8 host cells (primary and secondary screening, EC50). It counts as cell-based. The following applies: for % Inhibition (3.3 uM): secondary screening at 3.3 uM. Background: Quantitative PCR measures a nucleic acid by following its amplification.
Where [1] appears, read: primary screening at 10 uM, from Hs18S ΔCT.
[2] abbreviates: primary screening at 10 uM, treated vs control.

A word on the inhibition: it is the share of the control response that was lost under treatment.

Where a name gives a salt, the structure may show the parent alone. Read-outs that look alike come from different tables or passages of the source.

`CC[C@H]1OC(=O)C[C@@H](O)[C@H](C)[C@@H](O[C@@H]2O[C@H](C)[C@@H](O[C@H]3C[C@@](C)(O)[C@@H](O)[C@H](C)O3)[C@H](N(C)C)[C@H]2O)[C@@H](CC=O)C[C@@H](C)C(=O)/C=C/C(C)=C/[C@@H]1CO[C@@H]1O[C@H](C)[C@@H](O)[C@@H](OC)[C@H]1OC` [TYLOSIN TARTRATE]: in the data set with Cryptosporidium parvum (primary screening at 10 uM), the “Inhibition (%)” value was found to be 25.75%. In addition, the “Cytotoxicity (%)” value with HCT-8 host cells (Hs18S) (setting [1]) was -14.2%. Further, the “Hs18S ΔCT” value in the data set on HCT-8 host cells (Hs18S) (setting [2]) is -0.19.
Take `CC(=O)O[C@@H]1CC2C(C)(C)C(=O)C3OC3[C@]2(C)C2CC[C@@]3(C)[C@H](c4ccoc4)OC(=O)C4OC43[C@@]21C` (stereo partly shown) [EPOXYGEDUNIN]: the “Inhibition (%)” value in the data set on Cryptosporidium parvum (primary screening at 10 uM) is reported as 29.04%. Further, the “Cytotoxicity (%)” value in the data set with HCT-8 host cells (Hs18S) (setting [1]) is listed as -37.3%. In addition, the “Hs18S ΔCT” value with HCT-8 host cells (Hs18S) (setting [2]) is given as -0.46.
For `CC(=O)OC/C=C(\C)CC/C=C(\C)CC/C=C(\C)CC/C=C(\C)CC/C=C(\C)CC/C=C(\C)CC/C=C(\C)CC/C=C(\C)CCC=C(C)C` [SOLANESYL ACETATE], the “Inhibition (%)” value in the data set with Cryptosporidium parvum (primary screening at 10 uM) amounted to 15.24%. Also, in the data set on HCT-8 host cells (Hs18S), the “Hs18S ΔCT” value was -0.20. In addition, in the data set with HCT-8 host cells (Hs18S) (10 µM), the “Cytotoxicity (%)” value was -14.8.
For `CCCCCCCCCCCCCCCCC(C(=O)O)C(O)(CC(=O)O)C(=O)O` (stereo not shown) [AGARIC ACID], the “Inhibition (%)” value with Cryptosporidium parvum (primary screening at 10 uM) is -4.50%. For the same compound, the “Cytotoxicity (%)” value in the data set with HCT-8 host cells (Hs18S) (setting [1]) was determined as 18.9%. In the data set with HCT-8 host cells (Hs18S) (setting [2]), the “Hs18S ΔCT” value worked out at 0.30.
In the case of `C[C@]12C=CC(=O)C=C1CC[C@@H]1[C@@H]2CC[C@]2(C)C(=O)CC[C@@H]12` [ANDROSTA-1,4-DIEN-3,17-DIONE], in the data set with Cryptosporidium parvum (primary screening at 10 uM), the “Inhibition (%)” value is 15.07%. Further, in the data set with HCT-8 host cells (Hs18S) (setting [1]), the “Cytotoxicity (%)” value stood at 0.7%. Moreover, the “Hs18S ΔCT” value in the data set on HCT-8 host cells (Hs18S) (setting [2]) was found to be 0.01.
For `O=C(O)CC[N+](=O)[O-]` [BOVINOCIDIN], in that order: 41.04%, -25.1% and -0.32.
Consider AVOCATIN B, for which the “Inhibition (%)” value in the data set on Cryptosporidium parvum (primary screening at 10 uM) worked out at 4.87%. The “Cytotoxicity (%)” value with HCT-8 host cells (Hs18S) (setting [1]) stood at 21.9%. Further, in the data set on HCT-8 host cells (Hs18S) (setting [2]), the “Hs18S ΔCT” value was 0.36.
On the same counts, the results for `COc1ccc(/C=C/C(=O)c2ccc(O)cc2O)cc1` [2',4'-DIHYDROXY-4-METHOXYCHALCONE] are 14.88%, -99.8% and -1.00.
For `CC(C)CCC[C@@H](C)[C@H]1CC[C@H]2C3=CC[C@H]4C[C@@H](O)CC[C@]4(C)[C@H]3CC[C@]12C` [LATHOSTEROL], in that order: -50.10%, 21.4% and 0.35.
With AVERMECTIN A1a, in the data set with Cryptosporidium parvum (primary screening at 10 uM), the “Inhibition (%)” value is recorded as 97.32%. Further, the “% Inhibition (3.3 uM)” value in the data set with Cryptosporidium parvum was -85%. For the same compound, the “Cytotoxicity (%)” value in the data set on HCT-8 host cells (Hs18S) (setting [1]) is 1.6%. Also, the “Hs18S ΔCT” value with HCT-8 host cells (Hs18S) (setting [2]) turned out to be 0.02.
On to `CC(C)CCC[C@@H](C)[C@H]1CC[C@H]2[C@@H]3CC[C@H]4CCCC[C@]4(C)[C@H]3CC[C@]12C` [CHOLESTANE], for which the “Inhibition (%)” value in the data set on Cryptosporidium parvum (primary screening at 10 uM) was 13.94%. Moreover, the “Cytotoxicity (%)” value in the data set on HCT-8 host cells (Hs18S) (setting [1]) amounted to 12.2%. The “Hs18S ΔCT” value with HCT-8 host cells (Hs18S) (setting [2]) was found to be 0.19.
Take `CC1(C)C(=O)[C@@H]2O[C@@H]2[C@@]2(C)C1C[C@@H](O)[C@]1(C)C2CC[C@@]2(C)[C@H](c3ccoc3)OC(=O)C3OC321` (stereo partly drawn) [1,2alpha-EPOXYDEACETOXYDIHYDROGEDUNIN]: in the data set with Cryptosporidium parvum (primary screening at 10 uM), the “Inhibition (%)” value was 56.48%. Further, in the data set on HCT-8 host cells (Hs18S) (setting [1]), the “Cytotoxicity (%)” value is reported as -12.9%. Moreover, the “Hs18S ΔCT” value in the data set on HCT-8 host cells (Hs18S) (setting [2]) is on record as -0.18.
As for `CC(C(=O)O)[C@H]1CCC2C3CC=C4C[C@@H](O)CC[C@]4(C)C3CC[C@@]21C` (stereo partly drawn) [3beta-HYDROXY-23,24-BISNORCHOL-5-ENIC ACID], the “Inhibition (%)” value in the data set with Cryptosporidium parvum (primary screening at 10 uM) is -20.26%. In addition, the “Cytotoxicity (%)” value in the data set on HCT-8 host cells (Hs18S) (setting [1]) is -63.2%. Moreover, the “Hs18S ΔCT” value in the data set with HCT-8 host cells (Hs18S) (setting [2]) is reported as -0.71.
Consider `CC(C)CCC[C@@H](C)[C@H]1CC[C@H]2[C@@H]3CC[C@H]4C[C@@H](O)CC[C@]4(C)[C@H]3CC[C@]12C` [5alpha-CHOLESTANOL], for which the “Inhibition (%)” value with Cryptosporidium parvum (primary screening at 10 uM) is -23.23%. In addition, the “Cytotoxicity (%)” value in the data set on HCT-8 host cells (Hs18S) (setting [1]) is -2.4%. Further, the “Hs18S ΔCT” value in the data set on HCT-8 host cells (Hs18S) (setting [2]) is given as -0.03.
Turning to IVERMECTIN, the “Inhibition (%)” value in the data set with Cryptosporidium parvum (primary screening at 10 uM) is on record as 78.97%. Further, the “% Inhibition (3.3 uM)” value in the data set with Cryptosporidium parvum is recorded as 6%. Besides, the “Cytotoxicity (%)” value in the data set with HCT-8 host cells (Hs18S) (setting [1]) was -3.4%. Also, in the data set with HCT-8 host cells (Hs18S) (setting [2]), the “Hs18S ΔCT” value is -0.05.
Regarding `OC[C@H]1O[C@H](OCC2O[C@@H](O)[C@H](O)[C@@H](O)[C@@H]2O)[C@H](O)[C@@H](O)[C@H]1O` (stereo partly shown) [MELIBIOSE], in the data set with Cryptosporidium parvum (primary screening at 10 uM), the “Inhibition (%)” value is recorded as -16.19%. The “Cytotoxicity (%)” value with HCT-8 host cells (Hs18S) (setting [1]) is recorded as -4.0%. Further, the “Hs18S ΔCT” value in the data set with HCT-8 host cells (Hs18S) (setting [2]) was -0.06.
For TANNIC ACID, in that order: -22.61%, 17.0% and 0.27.
Consider `O=C(O)C1=C[C@@H](O)[C@@H](O)[C@H](O)C1` [SHIKIMIC ACID], for which, in the data set with Cryptosporidium parvum (Cryptosporidium parvum, HCT-8, primary screening at 10 uM, read-out: Inhibition (%)), the inhibition at 10 µM is 10.3%. Besides, in the data set with HCT-8 host cells (Hs18S) (human, 41 h, 10 μM), the “Hs18S ΔCT” value amounted to 0.06.
Regarding `C[N+](C)(C)CCO.[Cl-]` [CHOLINE CHLORIDE], the “Inhibition (%)” value in the data set on Cryptosporidium parvum (primary screening at 10 uM) was 20.98%. For the same compound, the “Hs18S ΔCT” value in the data set with HCT-8 host cells (Hs18S) was 0.33. For the same compound, the “Cytotoxicity (%)” value in the data set with HCT-8 host cells (Hs18S) (10 µM) is on record as 20.6.
Regarding `O=C(/C=C/c1ccc(O)cc1)c1ccccc1O` [2',4-DIHYDROXYCHALCONE], the “Inhibition (%)” value with Cryptosporidium parvum (primary screening at 10 uM) is recorded as -21.40%. Also, in the data set on HCT-8 host cells (Hs18S) (setting [1]), the “Cytotoxicity (%)” value is on record as 8.3%. Further, in the data set on HCT-8 host cells (Hs18S) (setting [2]), the “Hs18S ΔCT” value is listed as 0.13.

Source of the values: article PMC6736568, “Discovery of Novel Anti-cryptosporidial Activities From Natural Products by in vitro High-Throughput Phenotypic Screening” (Frontiers in Microbiology, 2019).
